Values after ≈ are worked out from the molar mass of the structure shown.

For assay [1], the system named is Plasmodium falciparum. The assay can be described thus: Antiplasmodial activity against chloroquine-sensitive Plasmodium falciparum D6 infected human erythrocytes by [3H]hypoxanthine uptake. It is filed as functional, organism-based.
The subject of assay [2] is Plasmodium falciparum. The assay can be described thus: Antiplasmodial activity against chloroquine-resistant Plasmodium falciparum W2 infected human erythrocytes by [3H]hypoxanthine uptake. It is filed as functional, organism-based.
The test system of assay [3] is Plasmodium falciparum. The assay can be described thus: Antiplasmodial activity against Plasmodium falciparum K1 infected human erythrocytes by [3H]hypoxanthine uptake. It is filed as functional, organism-based.
Assay [4] relates to Plasmodium berghei. The assay can be described thus: Antimalarial activity as reduced parasitaemia against Plasmodium berghei infected Swiss albino mice (Mus musculus) at 5 mg/kg/day peroral dose for 4 days. The following applies: route oral. On the set-up: scale not given: the % may be the effect or the level left. It is filed as functional.
The test system of assay [5] is Plasmodium yoelii. The assay can be described thus: Antimalarial activity as reduced parasitaemia against Plasmodium berghei yoelii infected Swiss albino mice (Mus musculus) at 5 mg/kg/day peroral dose for 4 days. It is filed as functional. The following applies: route oral. Details: scale not given: the % may be the effect or the level left.
The subject of assay [6] is Plasmodium yoelii. The assay can be described thus: Antimalarial activity as reduced parasitaemia against Plasmodium berghei yoelii infected Swiss albino mice (Mus musculus) at 50 mg/kg/day peroral dose for 4 days. On the set-up: scale not given: the % may be the effect or the level left. The following applies: route oral. It is filed as functional.
The subject of assay [7] is Plasmodium berghei. The assay can be described thus: Antimalarial activity as reduced parasitaemia against Plasmodium berghei infected Swiss albino mice (Mus musculus) at 50 mg/kg/day peroral dose for 4 days. It is filed as functional. Details: scale not given: the % may be the effect or the level left. The following applies: route oral.

Regarding `C[C@@H]1CC[C@H]2[C@@H](C)C(=O)O[C@@H]3O[C@@]4(C)CC[C@@H]1[C@]32OO4` [ARTEMISININ], the results for the IC50 in assay [1], in assay [2] and in assay [3] were 0.0025 µg/mL (≈ 0.00885 µM), 0.0027 µg/mL (≈ 0.00956 µM) and 0.0033 µg/mL (≈ 0.0117 µM), respectively.

Take `CCN(CC)CCCC(C)Nc1ccnc2cc(Cl)ccc12` (stereo unspecified) [CHLOROQUINE]: the Activity in assay [4] is reported as 2.2%; in assay [5], 1.65%.

Turning to `C[n+]1c2ccccc2cc2[n-]c3ccccc3c21.Cl` [CRYPTOLEPINE HYDROCHLORIDE], the Activity in assay [6] came out at 10.8%; in assay [7] it was 15.6%. For the same compound, the figures for the IC50 in assay [1], in assay [2] and in assay [3] were 0.041 µg/mL, 0.052 µg/mL and 0.062 µg/mL, respectively.

In the case of `C[n+]1c2ccccc2cc2[n-]c3ccccc3c21` [CRYPTOLEPINE], the figures for the Activity in assay [6] and in assay [7] were 13.7% and 45.4%, respectively. The IC50 (usually the concentration that gives 50% inhibition) in assay [1] worked out at 0.027 µg/mL (≈ 0.116 µM); in assay [2], 0.041 µg/mL (≈ 0.177 µM); in assay [3] it was 0.033 µg/mL (≈ 0.142 µM).

Regarding `Cn1c2c3ccccc3nc-2c(O)c2ccccc21` [HYDROXYCRYPTOLEPINE], the Activity in assay [7] worked out at 43.2%. Besides, the IC50 came to 0.031 µg/mL (≈ 0.125 µM) in assay [1], 0.059 µg/mL (≈ 0.238 µM) in assay [2] and 0.045 µg/mL (≈ 0.181 µM) in assay [3].

For the compound `OC(c1cc(C(F)(F)F)nc2c(C(F)(F)F)cccc12)C1CCCCN1` (stereo unspecified) [MEFLOQUINE], the figures for the IC50 in assay [1] and in assay [2] were 0.0063 µg/mL (≈ 0.0167 µM) and 0.0051 µg/mL (≈ 0.0135 µM), respectively.

Regarding `Cn1c2nc3ccccc3c-2cc2ccccc21` [NEOCRYPTOLEPINE], the IC50 was determined as 0.035 µg/mL (≈ 0.151 µM) in assay [1], 0.065 µg/mL (≈ 0.28 µM) in assay [2] and 0.051 µg/mL (≈ 0.22 µM) in assay [3].

As for `c1ccc2nc3c(cc2c1)[nH]c1ccccc13` [QUINDOLINE], the Activity turned out to be 42.1% in assay [6] and 48.2% in assay [7]. The IC50 was determined as 0.063 µg/mL (≈ 0.289 µM) in assay [1], 0.108 µg/mL (≈ 0.495 µM) in assay [2] and 0.087 µg/mL (≈ 0.399 µM) in assay [3].

`C=C[C@H]1CN2CC[C@H]1C[C@H]2[C@H](O)c1ccnc2ccc(OC)cc12` [QUININE]: the IC50 in assay [1] was 0.0176 µg/mL (≈ 0.0542 µM); in assay [3], 0.0352 µg/mL (≈ 0.108 µM).

The values above are taken from ChEMBL document CHEMBL1145685, “In vitro and in vivo antiplasmodial activity of cryptolepine and related alkaloids from Cryptolepis sanguinolenta” (J Nat Prod, 1997).
